Assay results: ChEMBL document CHEMBL3627675, “Protective effects of the bioactive natural product N-trans-Caffeoyldopamine on hepatotoxicity induced by isoniazid and rifampicin” (2015)
Active and inactive are the calls of the source. No cut-off for these calls is given here.

How the values were obtained:
Rattus norvegicus [1] = assay: Protective activity against isoniazid and rifampicin-induced hepatotoxicity in Wistar rat assessed as reduction of MDA level at 2.5 mg/kg, po (reference value: 30.5 +/- 7.8 nM/mg); assay type: functional
Rattus norvegicus [2] = species on record: Rattus norvegicus; assay: Protective activity against isoniazid and rifampicin-induced hepatotoxicity in Wistar rat assessed as decrease of CYP2E1 mRNA expression in liver; assay type: functional, organism-based
Rattus norvegicus [3] = assay: Protective activity against isoniazid and rifampicin-induced hepatotoxicity in Wistar rat assessed as increase of SOD activity at 2.5 mg/kg, po (reference value: 31.4 +/- 8.3 U/mg); assay type: functional
Rattus norvegicus [4] = assay: Protective activity against isoniazid and rifampicin-induced hepatotoxicity in Wistar rat assessed as increase of GSH activity at 2.5 mg/kg, po (reference value: 29.4 +/- 11.4 uM/gram); assay type: functional
Rattus norvegicus [5] = assay: Protective activity against isoniazid and rifampicin-induced hepatotoxicity in Wistar rat assessed as reduction of serum AST level at 2.5 mg/kg, po (reference value: 168.5 +/- 14.7 U); assay type: functional
Rattus norvegicus [6] = species on record: Rattus norvegicus; assay: Protective activity against isoniazid and rifampicin-induced hepatotoxicity in Wistar rat by haematoxylin and eosin staining; assay type: functional, organism-based
Rattus norvegicus [7] = assay: Protective activity against isoniazid and rifampicin-induced hepatotoxicity in Wistar rat assessed as reduction of serum ALT level at 2.5 mg/kg, po (reference value: 143.7 +/- 12.5 U); assay type: functional

| Compound | Activity (Rattus norvegicus [1]) | Activity (Rattus norvegicus [2]) | Activity (Rattus norvegicus [3]) | Activity (Rattus norvegicus [4]) | Activity (Rattus norvegicus [5]) | Activity (Rattus norvegicus [6]) | Activity (Rattus norvegicus [7]) |
| --- | --- | --- | --- | --- | --- | --- | --- |
| O=C(/C=C/c1ccc(O)c(O)c1)NCCc1ccc(O)c(O)c1 | 14.8 nM/mg | Active | 57 U/mg | 49 µmol/g | 86.4 U | Active | 80.6 U |
| O=C(O)/C=C/c1ccc(O)c(O)c1 [CAFFEIC ACID] | 23.5 nM/mg | Active | 48 U/mg | 42.9 µmol/g | 115.6 U | Active | 102.9 U |
